Experimental data taken from patent publication US5436229A, “Bisulfite adducts of arginine aldehydes” (Eli Lilly and Company, priority 1994, dated 1995).
Non-standard residues stand in square brackets, D forms with d. Residues, ends and D or L forms follow the SMILES beside them. dNMeCha = CN[C@H](CC1CCCCC1)C(=O)O

Key:
[1] = Epimerization inhibition by sodium bisulfite (compound of Example 80, Step F); format: physicochemical; settings: pH 7.4, 50° C.
Method: A 55.55 mM aqueous sodium phosphate solution (adjusted pH 7.4 with sodium hydroxide) was mixed with a 27.77 mM sodium bisulfite/27.77 mM sodium phosphate solution (adjusted pH 7.4 with sodium hydroxide) and water in various ratios to produce buffers containing 0,5.55, 16.66 and 27.77 mM sodium bisulfite. A 0.9 ml aliquot of each sodium bisulfite/phosphate buffer was added to separate 13×100 mm culture tubes and placed in a 50° C. Isotherm Tempblok® heater for 15 minutes. To each culture tube 0.1 ml of a 1 mg/ml aqueous solution of D-3-Piq-Pro-Arg-H.H2 SO4 (Example 80, Step F) was added and mixed well. […] These samples were allowed to react for 15 minutes at 90° C. and were then evaporated to dryness with nitrogen in a 55° C. N-Evap. The residue was dissolved in 1 ml of methanol and transferred to Varian Si BondElut SPE columns (1 ml) previously conditioned with 1 ml of water then 1 ml of methanol. The dissolved samples were pulled through solwly with a slight vacuum, and the sorbent layer was then washed with 2-1 ml volumes of methanol. The SPE columns were then dried at full vacuum (~25 in. Hg) and the compounds of interest were eluted with 300 μl of acetonitrile/100 mM sodium dodecyl sulfate (adjusted to pH 3 with phosphoric acid) (7:3, v/v) into 12×75 mm culture tubes. These eluates were analyzed by the HPLC system described below.
(§1) The mobile phase was acetonitrile/180 mM sodium dodecyl sulfate (adjusted to pH 3 with phosphoric acid) (85:15, v/v) pumped at 0.5 ml/min with a Shimadzu LC-10AD pump. The column was an Inertsil ODS(2) 150×3.0 mm maintained at 40° C. with a Jones Chromatography 7960 column heater. Twenty-five microliter injections were made with a Waters WISP 712 autosampler. Detection was accomplished with a Kratos 783 UV detector at 360 nm. The percentage of the DLD isomer was calculated using the peak areas of the DLL and DLD isomers in the chromatograms and the following equation: [formula]

[2] = Epimerization inhibition by sodium bisulfite (compound of Example 75); format: physicochemical; settings: pH 7.4, 50° C.
Method: A 55.55 mM aqueous sodium phosphate solution (adjusted to pH 7.4 with sodium hydroxide) was mixed with an aqueous 27.77 mM sodium bisulfite/27.77 mM sodium phosphate solution (adjusted to pH 7.4 with sodium hydroxide) and water in various ratios to produce buffers containing 0, 5.55, 11.11, 16.66, 22.22 and 27.77 mM sodium bisulfite. A 0.9 ml aliquot of each sodium bisulfite/phosphate buffer was added to separate 13×100 mm culture tubes and placed in a 50° C. Tempblok® heater for 15 minutes. To each culture tube 0.1 ml of a 1 mg/ml aqueous solution of the compound of Example 75 was added and mixed well. […] These samples were allowed to react for 30 minutes at 60° C. and were then evaporated to dryness with nitrogen in a 55° C. N-Evap. The residue was dissolved in 1 ml of methanol and transferred to Varian Si BondElut SPE columns (1 ml) previously conditioned with 2 ml of water then 2 ml of methanol. The dissolved samples were pulled through slowly with a slight vaccum, and the sorbent layer was then washed with 2-1 ml volumes of methanol. The SPE columns were then dried at full vacuum (~25 in. Hg) then 500 μl of 500 mM potassium chloride was passed through the SPE columns. The compounds of interest were eluted with 300 μl of methanol/500 mM potassium chloride (1:1, v/v) into 12×75 mm culture tubes. These eluates were analyzed by the HPLC system described below.
as §1, with “acetonitrile/methanol/500” for “acetonitrile/180”, “ammonium acetate” for “sodium dodecyl sulfate (adjusted to”, “7 (3:3:4,” for “3 with phosphoric acid) (85:15,”, “1” for “0.5”, “a Zorbax SB-C8 150×4.6” for “an Inertsil ODS(2) 150×3.0”, “Fifty” for “Twenty-five”

## N=C(N)NCCCC(C=O)NC(=O)C1CCCN1C(=O)C1CC2CCCCC2CN1.O=S(=O)(O)O [80 (Step F), D-3-(cis)Piq-Pro-Arg-H.H2 SO4]
[1]; sodium bisulfite 0 mM, 0 hr
  Percentage of DLD Isomer: 4.84%
[1]; sodium bisulfite 0 mM, 0.5 hr
  Percentage of DLD Isomer: 46.00%
[1]; sodium bisulfite 0 mM, 1 hr
  Percentage of DLD Isomer: 49.42%
[1]; sodium bisulfite 0 mM, 2 hr
  Percentage of DLD Isomer: 49.53%
[1]; sodium bisulfite 0 mM, 3 hr
  Percentage of DLD Isomer: 50.16%
[1]; sodium bisulfite 0 mM, 4 hr
  Percentage of DLD Isomer: 50.36%
[1]; sodium bisulfite 0 mM, 6 hr
  Percentage of DLD Isomer: 49.71%
[1]; sodium bisulfite 0 mM, 8 hr
  Percentage of DLD Isomer: 49.92%
[1]; sodium bisulfite 5 mM, 0 hr
  Percentage of DLD Isomer: 4.23%
[1]; sodium bisulfite 5 mM, 0.5 hr
  Percentage of DLD Isomer: 43.52%
[1]; sodium bisulfite 5 mM, 1 hr
  Percentage of DLD Isomer: 48.99%
[1]; sodium bisulfite 5 mM, 2 hr
  Percentage of DLD Isomer: 47.98%
[1]; sodium bisulfite 5 mM, 3 hr
  Percentage of DLD Isomer: 49.89%
[1]; sodium bisulfite 5 mM, 4 hr
  Percentage of DLD Isomer: 49.90%
[1]; sodium bisulfite 5 mM, 6 hr
  Percentage of DLD Isomer: 49.80%
[1]; sodium bisulfite 5 mM, 8 hr
  Percentage of DLD Isomer: 50.08%
[1]; sodium bisulfite 15 mM, 0 hr
  Percentage of DLD Isomer: 4.16%
[1]; sodium bisulfite 15 mM, 0.5 hr
  Percentage of DLD Isomer: 27.80%
[1]; sodium bisulfite 15 mM, 1 hr
  Percentage of DLD Isomer: 40.63%
[1]; sodium bisulfite 15 mM, 2 hr
  Percentage of DLD Isomer: 45.06%
[1]; sodium bisulfite 15 mM, 3 hr
  Percentage of DLD Isomer: 45.72%
[1]; sodium bisulfite 15 mM, 4 hr
  Percentage of DLD Isomer: 49.24%
[1]; sodium bisulfite 15 mM, 6 hr
  Percentage of DLD Isomer: 49.63%
[1]; sodium bisulfite 15 mM, 8 hr
  Percentage of DLD Isomer: 49.99%
[1]; sodium bisulfite 25 mM, 0 hr
  Percentage of DLD Isomer: 3.71%
[1]; sodium bisulfite 25 mM, 0.5 hr
  Percentage of DLD Isomer: 4.56%
[1]; sodium bisulfite 25 mM, 1 hr
  Percentage of DLD Isomer: 5.14%
[1]; sodium bisulfite 25 mM, 2 hr
  Percentage of DLD Isomer: 5.31%
[1]; sodium bisulfite 25 mM, 3 hr
  Percentage of DLD Isomer: 5.79%
[1]; sodium bisulfite 25 mM, 4 hr
  Percentage of DLD Isomer: 6.06%
[1]; sodium bisulfite 25 mM, 6 hr
  Percentage of DLD Isomer: 6.39%
[1]; sodium bisulfite 25 mM, 8 hr
  Percentage of DLD Isomer: 6.72%

## CN[C@H](CC1CCCCC1)C(=O)N1CCC[C@H]1C(=O)N[C@H](C=O)CCCNC(=N)N.Cl [Example 75, N-methyl-D-cyclohexylalanyl-L-Prolinyl-L-Arginine Aldehyde Hydrochloride] (H-[dNMeCha]-Pro-Arg-aldehyde)
[2]; sodium bisulfite 0 mM, 0 hr
  Percentage of DLD Isomer: 7.33%
[2]; sodium bisulfite 0 mM, 0.5 hr
  Percentage of DLD Isomer: 31.91%
[2]; sodium bisulfite 0 mM, 2 hr
  Percentage of DLD Isomer: 48.95%
[2]; sodium bisulfite 0 mM, 3 hr
  Percentage of DLD Isomer: 50.21%
[2]; sodium bisulfite 0 mM, 4 hr
  Percentage of DLD Isomer: 50.27%
[2]; sodium bisulfite 0 mM, 6 hr
  Percentage of DLD Isomer: 50.03%
[2]; sodium bisulfite 0 mM, 8 hr
  Percentage of DLD Isomer: 50.15%
[2]; sodium bisulfite 0 mM, […]
  Percentage of DLD Isomer: 44.72%
[2]; sodium bisulfite 5 mM, 0 hr
  Percentage of DLD Isomer: 7.35%
[2]; sodium bisulfite 5 mM, 0.5 hr
  Percentage of DLD Isomer: 14.64%
[2]; sodium bisulfite 5 mM, 2 hr
  Percentage of DLD Isomer: 34.64%
[2]; sodium bisulfite 5 mM, 3 hr
  Percentage of DLD Isomer: 42.75%
[2]; sodium bisulfite 5 mM, 4 hr
  Percentage of DLD Isomer: 47.21%
[2]; sodium bisulfite 5 mM, 6 hr
  Percentage of DLD Isomer: 48.75%
[2]; sodium bisulfite 5 mM, 8 hr
  Percentage of DLD Isomer: 49.61%
[2]; sodium bisulfite 5 mM, […]
  Percentage of DLD Isomer: 24.74%
[2]; sodium bisulfite 10 mM, 0 hr
  Percentage of DLD Isomer: 7.54%
[2]; sodium bisulfite 10 mM, 0.5 hr
  Percentage of DLD Isomer: 10.79%
[2]; sodium bisulfite 10 mM, 2 hr
  Percentage of DLD Isomer: 25.55%
[2]; sodium bisulfite 10 mM, 3 hr
  Percentage of DLD Isomer: 35.08%
[2]; sodium bisulfite 10 mM, 4 hr
  Percentage of DLD Isomer: 41.99%
[2]; sodium bisulfite 10 mM, 6 hr
  Percentage of DLD Isomer: 50.73%
[2]; sodium bisulfite 10 mM, 8 hr
  Percentage of DLD Isomer: 51.60%
[2]; sodium bisulfite 10 mM, […]
  Percentage of DLD Isomer: 17.72%
[2]; sodium bisulfite 15 mM, 0 hr
  Percentage of DLD Isomer: 8.37%
[2]; sodium bisulfite 15 mM, 0.5 hr
  Percentage of DLD Isomer: 10.31%
[2]; sodium bisulfite 15 mM, 2 hr
  Percentage of DLD Isomer: 21.41%
[2]; sodium bisulfite 15 mM, 3 hr
  Percentage of DLD Isomer: 28.54%
[2]; sodium bisulfite 15 mM, 4 hr
  Percentage of DLD Isomer: 35.26%
[2]; sodium bisulfite 15 mM, 6 hr
  Percentage of DLD Isomer: 46.26%
[2]; sodium bisulfite 15 mM, 8 hr
  Percentage of DLD Isomer: 50.58%
[2]; sodium bisulfite 15 mM, […]
  Percentage of DLD Isomer: 15.19%
[2]; sodium bisulfite 20 mM, 0 hr
  Percentage of DLD Isomer: 7.65%
[2]; sodium bisulfite 20 mM, 0.5 hr
  Percentage of DLD Isomer: 9.90%
[2]; sodium bisulfite 20 mM, 2 hr
  Percentage of DLD Isomer: 17.28%
[2]; sodium bisulfite 20 mM, 3 hr
  Percentage of DLD Isomer: 23.70%
[2]; sodium bisulfite 20 mM, 4 hr
  Percentage of DLD Isomer: 29.34%
[2]; sodium bisulfite 20 mM, 6 hr
  Percentage of DLD Isomer: 43.32%
[2]; sodium bisulfite 20 mM, 8 hr
  Percentage of DLD Isomer: 48.73%
[2]; sodium bisulfite 20 mM, […]
  Percentage of DLD Isomer: 12.88%
[2]; sodium bisulfite 25 mM, 0 hr
  Percentage of DLD Isomer: 8.16%
[2]; sodium bisulfite 25 mM, 0.5 hr
  Percentage of DLD Isomer: 9.47%
[2]; sodium bisulfite 25 mM, 2 hr
  Percentage of DLD Isomer: 14.78%
[2]; sodium bisulfite 25 mM, 3 hr
  Percentage of DLD Isomer: 18.66%
[2]; sodium bisulfite 25 mM, 4 hr
  Percentage of DLD Isomer: 24.34%
[2]; sodium bisulfite 25 mM, 6 hr
  Percentage of DLD Isomer: 37.60%
[2]; sodium bisulfite 25 mM, 8 hr
  Percentage of DLD Isomer: 46.26%
[2]; sodium bisulfite 25 mM, […]
  Percentage of DLD Isomer: 11.42%
